Test results as given in patent US20210220331A1, “INHIBITORS OF IRES-MEDIATED PROTEIN SYNTHESIS” (The Regents of the University of California, priority 2016, published 2021).

Legend:
[1] = system: subcutaneous LN229 tumors
Description: TUNEL staining of tumor sections was performed using the TACSXL DAB In Situ Apoptosis Detection kit (Trevigen) according to the manufacturer's instructions (19). […] Xenograft Studies-Xenografts of LN229 cells were performed in female C.B.-17-scid (Taconic) mice as previously described (14). Tumors were harvested at autopsy for Western blot analysis. Sections of paraffin-embedded tumors on slides were processed for immunohistochemistry as previously described (14,19). Statistical analysis was done with Student's t test and ANOVA models using Systat 13 (Systat Software, Chicago, Ill.). P values of less the 0.05 were considered significant.
Left panel, apoptotic cells were identified by TUNEL assays of sections prepared from harvested tumors at day 12 following initiation of treatment regimens. Data are expressed as the number of positive apoptotic bodies divided by high power field (hpf; 10-12 hpf/tumor). Values are means+S.D., *, P<0.05.

[2] = system: cyclin D1 or c-MYC mRNA association with eIF-4E; assay: eIF-4E immunoprecipitation and qRT-PCR of bound RNA; assay type: cell-based; conditions: LN229 cells, 50 nM
Description: For immunopurification of eIF4E and bound RNA (21), cells were lysed in buffer containing 50 mM Tris-HCl (pH 7.4), 300 mM NaCl, 0.5% NP-40, 10 mM NaF, 1 mM sodium orthovanidate, 1 mM PMSF, 1.5% aprotinin and SUPERase-IN (ThermoFisher Scientific), 0.025 units/ml, using a Dounce homogenizer at 4° C. Extracts were cleared by centrifugation and immunoprecipitated with eIF4E or control IgG. Beads were washed and obtained RNA was subjected to quantitative RTPCR. For quantitative RT-PCR, extraction of RNA was performed using Trizol (ThermoFisher). Total RNA was then quantified and integrity assessed using an Agilent 2100 Bioanalyzer (Agilent Technology). Total RNA was reverse transcribed with random primers using the RETROscript Kit from ThermoFisher. SYBR Green quantitative PCR was performed in triplicate in 96-well optical plates on an ABI Prism 7000 Sequence Detection System (Life Technologies) according to the manufacturer's instructions. Primer sequences for CCND1, c-MYC and actin are available upon request. […]
(B) Schematic diagrams of the dicistronic constructs used in this study. […] Input and bound fractions were analyzed by immunoblotting using hnRNP A1 antibodies. […] Bound CCND1 or c-MYC RNAs were detected via RT-PCR. […]

[3] = combination PP242 50 mg/kg/d + IRES-J007 20 mg/kg/d

Structure (SMILES)	overall survival compared to either monotherapy [1, 3]	tumor growth delay [1, 3] [days]	inhibition of tumor growth at end of dosing period ([1]; combination PP242 50 mg/kg/d + IRES-J007 20 mg/kg/d, ten consecutive days) [%]	cyclin D1 and c-MYC protein levels in tumors ([1]; combination therapy)	TUNEL staining of tumor sections (apoptosis) ([1]; combination therapy, tumors harvested at day 12)	tumor growth vs double vehicle controls ([1]; monotherapy IRES-J007 20 mg/kg/d, ten consecutive days)	cyclin D1 or c-MYC mRNA association with eIF-4E [2]
COc1ccc(CN2C(=O)c3ccccc3C2=O)c(OC)c1 [IRES-J007, 2-((2,4-Dimethoxyphenyl)methyl)isoindoline-1,3-dione]	significantly extended	20.5	93	Marked reductions	significant staining	did not differ significantly	
COc1ccc(CN2C(=O)C(Cl)=C(Cl)C2=O)c(OC)c1 [Compound C11, reference compound]							did not affect
